# Reference: US8580556B2, “Sulfonylurea-responsive repressor proteins” (E. I. du Pont de Nemours and Company, priority 2008, dated 2013)
# Experiments:
# [1] = system: tetA promoter (PtetA)-lacZ reporter in E. coli KM3; type: cell-based; settings: L1 hits; 20 μg/ml
# [2] = system: tet operator (tetO); experiment: Electrophoretic gel mobility shift assay (EMSA), tet operator binding; settings: ethametsulfuron repressor protein (L7A11) with TetO DNA; FIG. 7
# [3] = pH 7; cited from earlier work
# [4] = system: tobacco BY-2 cell culture; experiment: Tobacco BY-2 cell culture (dMMV-HRA) sulfonylurea resistance; type: cell-based, N. tabacum; settings: 200 ppb chlorsulfuron
# Excerpt: In addition to the leaf assay it was desired to have an in planta assay to enable high throughput screening of SuR libraries for optimal plant functionality. We designed a system similar to the leaf assay but using tobacco BY-2 cell culture in 96-well format. BY-2 cell culture was transformed with a dMMV-HRA construct such that the culture would withstand treatment with target sulfonylurea test compounds.
Structure (SMILES),activator potency compared with the starting ligand Harmony® [1],release of repressor from operator sequence by inducer [2],logP [3],growth of dMMV-HRA transformed BY-2 cell line [4]
"CCOc1nc(NC)nc(NC(=O)NS(=O)(=O)c2ccccc2C(=O)OC)n1 [ethametsulfuron, Ethametsulfuron-methyl, reference compound]",more potent activators,inducer preference for operator release,,
"CCOC(=O)c1ccccc1S(=O)(=O)NC(=O)Nc1nc(Cl)cc(OC)n1 [chlorimuron, Chlorimuron-ethyl, reference compound]",more potent activators,,,
"COC(=O)c1sccc1S(=O)(=O)NC(=O)Nc1nc(C)nc(OC)n1 [Harmony®, thifensulfuron-methyl]",,,~0.02,
"COc1nc(C)nc(NC(=O)NS(=O)(=O)c2ccccc2Cl)n1 [chlorsulfuron, 2 chloro N ((4 methoxy 6 methy 1,3,5 triazine 2 yl)aminocarbonyl)benzenesulfonamide, reference compound]",more potent activators,,,fully resistant
"Cc1c2c(c(O)c3c(O)cccc13)C(=O)[C@]1(O)C(=O)C(C(N)=O)=C(O)[C@@H](N(C)C)[C@@H]1C2 [atc, anhydrotetracycline]",,No change in operator release,,
